# Test results as given in publication PMC6283646, “Identification and binding mode of a novel Leishmania Trypanothione reductase inhibitor from high throughput screening” (PLoS Neglected Tropical Diseases, 2018).
# Where two headings read alike, the source gives them in different places.
# How the values were obtained:
# [1] = tested on: L. infantum promastigotes; experiment: Inhibition of promastigote growth (MTT); format: cell-based; conditions: for IC50: Leishmania infantum, 72 h, MTT
# Protocol: Promastigote (the extracellular stage of the Leishmania life cycle) growth inhibition was evaluated using L. infantum strain (MHOM/TN/80/IPT1). […] Promastigotes were grown in Schneider’s Drosophila medium (SIGMA) containing 10% Fetal Calf Serum (FCS) (GIBCO-BRL) and 2% gentamicin (50 mg/L) (Sigma) at 22°C. Parasites were adjusted to 1 × 10^6 parasites/mL, and 200 μL of suspension was seeded in triplicate in 96-well flat bottom microplates and incubated with varying concentrations of compound. […] Each experiment was done in triplicate for each drug concentration and two independent experiments were performed. After 72 h of incubation, 30 μL of MTT was added to each well and plates were further incubated for 2 h. The absorbance at 550 nm was measured with a 96-well scanner (DINEX Technologies, VA, USA). Anti-leishmanial activity per experimental point was expressed as mean percentage of inhibition with respect to vehicle treated parasites (0%). In addition, the promastigote vitality was followed by microscopic observation after 72 h. Data were analyzed and plotted by Prism (GraphPad, San Diego, USA).
# [2] = target: T1, L. infantum TR (Leishmania infantum, UniProt A4HSF7); experiment: DTNB absorbance-based TR assay; format: biochemical
# T1 construct: made in house
# T1 sequence (A4HSF7 entry or part of it): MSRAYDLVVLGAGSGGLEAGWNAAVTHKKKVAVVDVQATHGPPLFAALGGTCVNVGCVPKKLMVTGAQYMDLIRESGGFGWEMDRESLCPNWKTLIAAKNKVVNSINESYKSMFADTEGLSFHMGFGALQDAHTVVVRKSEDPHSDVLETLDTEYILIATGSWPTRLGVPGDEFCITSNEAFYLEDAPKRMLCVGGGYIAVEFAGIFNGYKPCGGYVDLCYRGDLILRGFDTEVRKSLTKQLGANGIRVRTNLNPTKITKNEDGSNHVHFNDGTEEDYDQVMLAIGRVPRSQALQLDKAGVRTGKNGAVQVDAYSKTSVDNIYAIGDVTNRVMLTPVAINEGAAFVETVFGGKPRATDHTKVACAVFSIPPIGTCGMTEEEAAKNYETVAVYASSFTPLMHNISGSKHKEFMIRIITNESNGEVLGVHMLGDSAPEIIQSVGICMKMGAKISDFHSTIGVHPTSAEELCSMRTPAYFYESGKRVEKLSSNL
# Text: L. infantum TR was cloned and purified as previously described.[9, 28] Bovine serum albumin (BSA), NADPH, auranofin, hGR, oxidized glutathione (GSSG) and DTNB were purchased from Sigma-Aldrich (St. Louis, MO); oxidized trypanothione (TS2) was purchased from Bachem (Bubendorf, Switzerland); the NADPH-Glo kit was purchased from Promega (Madison, WI, U.S.A.). Compounds, dissolved in DMSO, were transferred to 384-well white plates (Greiner Bio One, Frickenhausen, Germany) using the acoustic droplet ejection technology (ATS-100, EDC Biosystems, U.S.A.) to reach the desired final concentration. The TR enzymatic reaction was performed by addition of 0.1 nM TR, 12.5 μM NAPDH, 15 μM TS2 in 50 mM HEPES (pH 7.4), 40 mM NaCl, 0.01% BSA in a final volume of 15 μL. After 60 min of incubation at room temperature, an equal volume of NADPH-Glo reagent was added and the luminescent signal was acquired by an EnVision plate reader (PerkinElmer, Waltham, MA, U.S.A.). […] In addition, in order to make sure that the production of a reducing agent (i.e. T(SH)2) by the TR activity was not going to interfere with the assay, and in absence of T(SH)2 as purified reagent, the effect of DTT and GSH was tested on the NADPH-Glo reaction resulting in no interference at concentrations relevant for the current setup (S2 Fig). The hGR assay was performed by addition of 0.5 nM hGR, 10 μM GSSG, 20 μM NADPH in 50 mM HEPES (pH 7.4), 40 mM NaCl, 0.01% BSA in a final volume of 15 μL. After 30 min incubation at room temperature 15 μl of NADPH-Glo kit was added to reveal the signal. […] The absorbance signal (412 nm) was acquired 15 minutes post incubation at room temperature using the plate reader (Safire2, Tecan, Switzerland). Results were analyzed using Prism software (GraphPad, San Diego, CA, U.S.A.) and Vortex (Dotmatics, Bioshops Stortford, UK). Dose-response curves were fitted by four-parameter logistic regression.
# [3] = target: T1, L. infantum TR; experiment: Luminescence-based (NADPH-Glo) TR enzymatic assay; format: biochemical
# Text: (§1) L. infantum TR was cloned and purified as previously described.[9, 28] Bovine serum albumin (BSA), NADPH, auranofin, hGR, oxidized glutathione (GSSG) and DTNB were purchased from Sigma-Aldrich (St. Louis, MO); oxidized trypanothione (TS2) was purchased from Bachem (Bubendorf, Switzerland); the NADPH-Glo kit was purchased from Promega (Madison, WI, U.S.A.). Compounds, dissolved in DMSO, were transferred to 384-well white plates (Greiner Bio One, Frickenhausen, Germany) using the acoustic droplet ejection technology (ATS-100, EDC Biosystems, U.S.A.) to reach the desired final concentration. The TR enzymatic reaction was performed by addition of 0.1 nM TR, 12.5 μM NAPDH, 15 μM TS2 in 50 mM HEPES (pH 7.4), 40 mM NaCl, 0.01% BSA in a final volume of 15 μL. After 60 min of incubation at room temperature, an equal volume of NADPH-Glo reagent was added and the luminescent signal was acquired by an EnVision plate reader (PerkinElmer, Waltham, MA, U.S.A.). […] In addition, in order to make sure that the production of a reducing agent (i.e. T(SH)2) by the TR activity was not going to interfere with the assay, and in absence of T(SH)2 as purified reagent, the effect of DTT and GSH was tested on the NADPH-Glo reaction resulting in no interference at concentrations relevant for the current setup (S2 Fig). The hGR assay was performed by addition of 0.5 nM hGR, 10 μM GSSG, 20 μM NADPH in 50 mM HEPES (pH 7.4), 40 mM NaCl, 0.01% BSA in a final volume of 15 μL. After 30 min incubation at room temperature 15 μl of NADPH-Glo kit was added to reveal the signal. The 5,5′-dithiobis(2-nitrobenzoic acid) (DTNB) assay was performed using 2 nM TR, 100 μM NADPH, 4 μM TS2 and 200 μM DTNB in 40 mM HEPES (pH 7.4), 1 mM EDTA, 0.01% BSA and 0.05% tween-20 in a final volume of 50 μl. The absorbance signal (412 nm) was acquired 15 minutes post incubation at room temperature using the plate reader (Safire2, Tecan, Switzerland). Results were analyzed using Prism software (GraphPad, San Diego, CA, U.S.A.) and Vortex (Dotmatics, Bioshops Stortford, UK). Dose-response curves were fitted by four-parameter logistic regression.
# [4] = target: T2, human glutathione reductase (hGR) (Homo sapiens, UniProt P00390); experiment: hGR assay (NADPH-Glo); format: biochemical; conditions: for IC50: n=3
# T2 construct: purchased Sigma-Aldrich
# T2 sequence (P00390 44-522): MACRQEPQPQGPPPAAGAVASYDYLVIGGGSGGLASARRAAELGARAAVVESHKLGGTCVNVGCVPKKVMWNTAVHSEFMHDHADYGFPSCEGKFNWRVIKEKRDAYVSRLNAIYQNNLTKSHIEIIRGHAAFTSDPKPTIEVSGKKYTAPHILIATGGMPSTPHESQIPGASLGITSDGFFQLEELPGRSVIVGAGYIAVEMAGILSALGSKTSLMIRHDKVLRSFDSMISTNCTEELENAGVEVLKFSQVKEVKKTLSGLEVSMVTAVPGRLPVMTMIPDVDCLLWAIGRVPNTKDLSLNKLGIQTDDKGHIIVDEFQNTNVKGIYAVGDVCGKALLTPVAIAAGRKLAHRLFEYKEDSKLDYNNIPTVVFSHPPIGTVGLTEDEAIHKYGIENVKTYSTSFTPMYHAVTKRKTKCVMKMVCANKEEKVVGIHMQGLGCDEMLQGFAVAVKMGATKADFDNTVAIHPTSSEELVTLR
# Text: as §1
# [5] = Solubility in assay buffer; format: physicochemical; conditions: aqueous buffer
# [6] = target: T3, TR (Leishmania infantum, UniProt A4HSF7); experiment: Competition assay with TS2 or NADPH; format: biochemical; conditions: 4, 16, 64 μM compound
# T3 construct: made in house
# T3 sequence (A4HSF7 1-491): as the sequence (A4HSF7 entry or part of it) above
# Protocol: Competition assays were performed using three test concentrations (4, 16 and 64 μM) for the competing compounds. The reaction buffer and components were mostly identical to those used in the TR assay described above, but 1 nM TR was employed for 5 minutes against a serial dilution of either TS2 in presence of 40 μM NADPH or NADPH in presence of 30 μM TS2. The residual amount of NADPH was measured using the NADPH-Glo kit (Promega, U.S.A.) after 30 min incubation at room temperature as per the manufacturer’s protocol. The luminescent signal was measured using the EnVision plate reader (PerkinElmer, USA). IC50, Vmax, and Km values were calculated using Prism software (GraphPad, San Diego, CA, U.S.A.).
# The NADPH concentration for the TS2 dilutions was 40 μM while the TS2 concentration for the NADPH dilutions was 30 μM.
# [7] = target: T3, TR; experiment: Binding assay by SPR
# Protocol: Surface plasmon resonance (SPR) interaction analysis was performed using a Biacore T200 (GE Healthcare, Uppsala, Sweden). TR was immobilized on a CM4 chip by amine coupling according to manufacturer’s instructions (Amine Coupling Kit, GE Healthcare, Uppsala, Sweden). Briefly, the surface of the sensor chip was activated for 7 min using a mixture of 0.1 M N-hydroxy succinimide (NHS) and 0.4 M N-ethyl-N’-[3-dimethyl-aminopropyl] carbodiimide (EDC) then 25 μg/mL of TR in 10 mM sodium acetate (pH 5.0) was injected for 360 s at 10 μl/min, finally residual activated groups on the surface were blocked by a 7-min injection of 1 M ethanolamine (pH 8.5). A reference channel for background subtraction was prepared by activation with EDC/NHS mixture (0.1 M/0.4 M as per ligand immobilization), followed by blocking with 1 M ethanolamine. The binding of the selected hit to the immobilized ligand was evaluated by a multi-cycle kinetic procedure in 50 mM HEPES pH 7.4, 40 mM NaCl, 0.05% Tween-20 supplemented with 2% DMSO (Sigma Aldrich). The analyte was injected for 20 s at 30 μl/min until equilibrium and dissociation monitored for 120 s. A standard curve of DMSO was included for solvent correction. Biomolecular binding events were reported as changes of resonance units (RUs) over time. The data were analysed by the Biacore T200 evaluation software: specific sensorgrams were obtained for the analyte, by subtracting the signals of the reference channel to those of the TR-immobilized one, and corrected for DMSO interference from DMSO standard curve. The binding affinity was evaluated at steady state whereas the kinetic parameters were calculated by a one-phase association and two-phase dissociation model using the Prism software (GraphPad, San Diego, CA, U.S.A.)
# [8] = target: T3, TR; parameters: method as in PMID 26033467; conditions: read-out: TS2 Km; cited from earlier work
# [9] = Fig 5, read-out: IC50 (TR inhibition potency)
smiles,measurement,setting,value
"C[C@@H]1[C@H](O)[C@@H](C)/C=C/C=C/C=C/C=C/C=C/C=C/C=C/[C@H](O[C@@H]2O[C@H](C)[C@@H](O)[C@H](N)[C@@H]2O)C[C@@H]2O[C@](O)(C[C@@H](O)C[C@@H](O)[C@H](O)CC[C@@H](O)C[C@@H](O)CC(=O)O[C@H]1C)C[C@H](O)[C@H]2C(=O)O [Amphotericin B, reference compound]",IC50,[1],0.5 µM
"CC(=O)OC[C@H]1O[C@@H]([S-])[C@H](OC(C)=O)[C@@H](OC(C)=O)[C@@H]1OC(C)=O.CCP(CC)CC.[Au+] [Auranofin, reference compound]",IC50,"[2]; dose-response, Fig 3D, read-out: potency, DTNB assay",0.154 ± 0.0107 µM
same,IC50,"[3]; dose-response, Fig 3D, read-out: potency, luminescent assay",6.6 ± 1.05 µM
O=C(N/N=C/c1ccc([N+](=O)[O-])s1)C1CC12CCC2 (stereo not drawn) [Compound 1],IC50,[3]; [9],1.76 ± 0.371 µM
CN(C)C(=O)c1ccc(NCCC(=O)c2cc3ccccc3o2)cc1 [Compound 2],IC50,[3]; [9],13.3 ± 2.69 µM
same,IC50,"[3]; n=3, read-out: TR assay IC50",13.3 ± 2.69 µM
same,selectivity for TR with respect to hGR,[4],not selective
same,IC50,[4],13.9 ± 3.5 µM
"CCN(CC)CCOC(=O)c1ccc(NCCC(=O)c2ccc([N+](=O)[O-])cc2)cc1 [Compound 3, 2-(Diethylamino)ethyl 4-((3-(4-nitrophenyl)-3-oxopropyl)amino)benzoate]",solubility,[5],> 100 µM
same,IC50,[2]; read-out: DTNB IC50,4 ± 0.9 µM
same,competition with NADPH,[6]; 30 μM TS2,competitive for NADPH
same,effect on TS2 Km,[6]; 40 μM NADPH,did not alter TS2 Km
same,Kd,"[7]; Kd from kslow/kon ratio, kslow/kon",22.7 µM
same,kon,[7]; one-phase association model,3510 ± 1.09e+06 M⁻¹ s⁻¹
same,Kd,"[7]; steady state, read-out: steady state calculated Kd",28.3 ± 5.12 µM
same,kfast,[7]; two-phase dissociation model,5.88 ± 0.96 s⁻¹
same,kslow,[7]; two-phase dissociation model,0.08 ± 0.02 s⁻¹
same,IC50,[3]; [9],7.51 ± 2.53 µM
same,IC50,"[3]; n=3, read-out: TR assay IC50",7.52 ± 2.53 µM
same,IC50,"[3]; read-out: Luminescence assay IC50 (in vitro potency, TR)",7.5 ± 2.5 µM
same,promastigote mortality,"[1]; 72 h after treatment, up to 100 μM",100%
same,IC50,[1],12.4 ± 1.09 µM
same,selectivity for TR with respect to hGR,[4],selective
same,IC50,[4],> 85 µM
"N[C@@H](CCC(=O)N[C@@H](CS)C(=O)NCC(=O)NCCCCNCCCNC(=O)CNC(=O)[C@H](CS)NC(=O)CC[C@H](N)C(=O)O)C(=O)O [TS2, N1,N8-bis(glutathionyl)spermidine]",Km,"[2]; DTNB assay, 20 nM TR, 100 μM NADPH, read-out: TS2 Km (apparent)",3.6 ± 0.5 µM
same,Km,[8],23 ± 1 µM
same,Km,"[3]; luminescent assay, 0.5 nM TR, 12.5 μM NADPH, read-out: TS2 Km (apparent)",13.5 ± 3.8 µM
